Data as given in patent US5242915A, “Formulation useful for the inhibition of massive release of cerebral glutamate” (Shionogi & Co., Ltd., priority 1991, dated 1993).
Entries after “also recorded” stand apart in the source; their conditions may differ. Where two headings read alike, the source gives them in different places.

Key:
[1] = cited from earlier work; for antihypertensive, peripheral, cerebral and coronary vasodilating actions: background statement
vascular smooth muscle = conditions: background statement; cited from earlier work
[2] = test system: cerebral release of glutamate; conditions: comparison, no data shown, cited from earlier work
DBA/2 Mouse = assay: Ultrasonically (sound)-induced convulsion in DBA/2 mouse; type: in vivo, mouse (DBA/2); conditions: for ED50: Mus musculus, one hour before ultrasonic treatment (70-90 db, 1 min), probit method, read-out: ED50 (anti-convulsant effect); for anti-convulsant effect, in words: sound/ultrasonically induced convulsion; for anticonvulsive effect (general statement): FIG. 3 and Table 1
Excerpt: Animal: Ten mice consisting of five each of male and female DBA/2 mice (weighing from 7 to 11 g) bred at the Aburahi Laboratories (Shionogi) at three weeks of age were used in a group.
One hour before the ultrasonic treatment, each mouse of test group orally received S-312-d as a solution in polyethylene glycol 400. To each mouse of control groups was orally administered either of Nicardipine, as a solution in polyethylene glycol 400, S-312-1, Nimodipine or Flunarizine, as a suspension in gum arabic. Convulsion was induced in mouse by an ultrasonic treatment (70-90 db, 1 min) and the number of tetanic death was observed. ED50 value of anti-convulsant effect of each compound was calculated by probit method using the […] as an indication.

[3] = NMDA channel antagonist; cited from earlier work
[4] = test system: massive release of cerebral glutamate in hippocampal CAI region; assay: Effect on the ischemic release of glutamate in hippocampal CAI region (BCAO, microdialysis); type: in vivo, rat (SHRSP, stroke-prone spontaneously Hypertensive Rats); conditions: intraduodenal, 40 min before BCAO, S-312-d 0.3 mg/kg; for inhibition of the massive release of glutamate during BCAO: nilvadipine 3 mg/kg, nimodipine 3 mg/kg, FIG. 2
Excerpt: Thus, an experimental cerebral ischemia was caused in SHRSPs by the occlusion of both common carotid arteries (hereinafter, referred to as BCAO). During the ischemic period, a massive release of glutamate in hippocampal CAI region was observed (see, FIG. 1).
Reference compound: nilvadipine, and nimodipine Animal: Five male SHRSP bred at the Aburahi Laboratories (Shionogi) at ten to twelve weeks of age were used in a group. Animals were fed CA-1 (Nihon Clea) and tap water ad libitum.
Hippocampus CAI region was made ischemia by the occlusion of both common carotid arteries (BCAO) into rats as follows:
Rats were anesthetized with halothane (3%) and the cervical region proximal to abdomen was incised to expose the common carotid arteries. Both arteries were occluded with nylon threads with each end exposed at the back of the neck through either of two holes of a tube (double lumen PE tube, Natsume Seisakusho, & Co.). Occlusion was induced in the both common carotid arteries by pulling strongly each exposed end of threads. BCAO was stopped by gradually pulling down the each end of threads passed under arteries proximal to abdomen. During the ischemic period, the halothane inhalation was stopped.
The determination of the regional cerebral blood flow was conducted using a laser doppler tissue flow meter (LFA-2, Biomedical Science, Japan) with a needle-type sensor (450 μm in diameter) inserted into the hippocampal CA1 region opposite to the site where a microdialysis probe had been fixed. The blood flow during BCAO was estimated as almost negligible on the assumption that the blood flow after the death of rat is "0".
S-312-d (0.3 mg/kg), nilvadipine (3 mg/kg), or nimodipine (3 mg/kg) was dissolved into polyethylene glycol 400 and administered into duodenum in each rat at 40 min before BCAO.
Under the anesthesia with halothane (1-2%), rats were fixed on cerebral stereotaxic frame and equipped with an artificial respirator (1 cc/100 gbw×60 times/min), while being maintained at 37 ° C by settling a heating pad beneath the lower abdominal region. A hole was drilled on the exposed skull and a microdialysis probe (CMA/10, membrane length 2 mm, BAS, Sweden) was inserted gently. Measurement was started after 3 hr from the surgery in order to avoid the influence of tissue damage. The probe was perfused with Ringer's solution at a flow rate of 2 μl/min by a microdialysis pump (CMA/100, BAS, Sweden). The dialysates were collected for each 5-min perfusion and pooled. Sampling was started at 10 min before the BCAO. BCAO was continued for 20 min when it was stopped by loosening […] threads to allow cerebral circulation. The sampling was continued for 20 min after the discontinuation of the BCAO. Samples were then subjected to quantitative analysis for glutamate without further treatments.
The concentration of glutamate was determined by HPLC substantial in accordance with the HPLC-ECD method of Donzanti et al. (Life Sci. 43: 913 (1988)) The glutamate-containing sample was reacted with o-phthlaldehyde/β-mercaptoethanol solution for 2 min and injected into a reverse-phase column and eluted under the following conditions. The eluate was then analyzed for the presence of glutamate by an electrochemical measurement of oxidation-reduction current.
Column: C 18, particle size: 3 μm, 8 cm×4.6 mm
Mobile phase: a mixture of 0.1M phosphate buffer (pH 6.4), 0.13 mM Na2 EDTA, and 22% MeOH

[5] = test system: pyramidal neurons of the hippocampal CAI region; assay: Delayed neuronal death during cerebral ischemia (density of living pyramidal neurons); type: in vivo, rat (SHRSP); conditions: for Density of Neurons, animals with 40-80 n/mm / Density of Neurons, animals with 80-120 n/mm / Density of Neurons, animals with <40 n/mm / Density of Neurons, animals with >120 n/mm: 7th day; for Density of Neurons, mean ± S.E.M: normal 160 ± 9, control 69 ± 10
Method: Animal: eight to twelve (n=8-12) male SHRSP bred at the Aburahi Laboratories (Shionogi) were used in a group. Animals were fed CA-1 (Nihon Clea) and tap water ad libitum.
S-312-d was dissolved into polyethylene glycol 400 solution and intraperitoneally administered to a SHRSP at 60 min before the introduction of a global cerebral ischemia. Cerebral ischemia was then caused in each rat for 20 min and stopped to allow cerebral circulation in the same manner as the above Experiment 1. For the histological observation on the delayed neuronal death, a fixation of tissue was conducted by perfusing the animal from the left ventricle using 4% paraformaldehyde at a flow rate of 10 ml/min by means of perista pump (AC-2110, ATTA) on the 7th day from the ischemia. After the removal of brain, cerebral region containing hippocampus was embedded in paraffin, from which sliced preparations of 4 μm thick were prepared. Each cerebral preparation was stained with hematoxylin-eosin and the density of the living pyramidal neurons (n/mm) was determined by counting the number of neurons per 1 mm length of the hippocampal CAI region under a light microscope. The data were expressed as the mean ±S.E.M. For the purpose of comparison, SHRSPs with or without ischemic maneuvering were both treated with propylene glycol, in exactly the same manner as the above.

[6] = oral, one hour before ultrasonic treatment
[7] = treated group (I), 0.01 mg/kg i.p. 60 min before ischemia (20 min), n = 12
[8] = treated group (II), 0.1 mg/kg i.p. 60 min before ischemia (20 min), n = 13

For `COC(=O)C1=C(C)Nc2scc(CC(C)C)c2C1c1cccc([N+](=O)[O-])c1` (racemic) [S-312, methyl 4,7-dihydro-3-isobutyl-6-methyl-4-(3-nitrophenyl)thieno[2,3-b]pyridine-5-carboxylate], the adverse reactions ([1]; U.S. Pat. No. 4,703,051) is listed as “lesser adverse reactions”, the “vasodilating, antihypertensive and coronary vasodilating effect” value ([1]; U.S. Pat. No. 4,703,051) is listed as “potent antihypertensive and coronary vasodilating effect” and the “antihypertensive, peripheral, cerebral and coronary vasodilating actions” value [1] is listed as “exhibit antihypertensive activity, as well as peripheral, cerebral, and coronary vasodilating actions”. The “Ca-blocking effect on vascular smooth muscle” value (vascular smooth muscle) was “selective Ca-blocking effect on vascular smooth muscle”.
In the case of `NCC(CC(=O)O)c1ccc(Cl)cc1` (stereo not shown) [Baclofen], the “effect on ischemic release of glutamate” value [2] is given as “not the ischemic release”, the “effect on normal release of glutamate” value [2] is given as “inhibit the normal glutamate release” and the “effect on normal release of glutamate” value ([2]; listed as baclofen) is given as “inhibits the normal release”.
With `Fc1ccc(C(c2ccc(F)cc2)N2CCN(C/C=C/c3ccccc3)CC2)cc1` [Flunarizine] the ED50 (DBA/2 Mouse; oral) was 48.1 mg/kg and the “anti-convulsant effect, in words” value (DBA/2 Mouse) was “dose-dependent anti-convulsant effect”.
In the case of `C[C@]12N[C@H](Cc3ccccc31)c1ccccc12` [MK-801], the “toxic effects / clinical applicability” value [3] is listed as “not clinically applicable because of serious toxic effects”.
For `COC(=O)C1=C(C)NC(C)=C(C(=O)OCCN(C)Cc2ccccc2)C1c1cccc([N+](=O)[O-])c1` (stereo not shown) [Nicardipine], the “Anticonvulsive effect (maximum), at 20-80 mg/kg” value (DBA/2 Mouse; [6]) was 30% and the “anticonvulsive effect (general statement)” value (DBA/2 Mouse; [6]) was “less than 40%”.
In the case of `COCCOC(=O)C1=C(C)NC(C)=C(C(=O)OC(C)C)C1c1cccc([N+](=O)[O-])c1` (stereo not shown) [Nimodipine, reference compound], the “inhibition of the massive release of glutamate during BCAO” value (from here on “inhibition”) [4] is reported as “only S-312-d was significantly effective; also recorded: neither nilvadipine nor nimodipine shows significant effect”, the “Anticonvulsive effect (maximum), at 20-80 mg/kg” value (DBA/2 Mouse; [6]) is reported as 40% and the “anticonvulsive effect (general statement)” value (DBA/2 Mouse; [6]) is reported as “less than 40%”.
With `COC(=O)C1=C(C)Nc2scc(CC(C)C)c2[C@@H]1c1cccc([N+](=O)[O-])c1` [S-312-1, methyl (-)-(4R)-4,7-dihydro-3-isobutyl-6-methyl-4-(3-nitrophenyl)thieno[2,3-b]pyridine-5-carboxylate] the “Anticonvulsive effect (maximum), at 10-80 mg/kg” value (DBA/2 Mouse; oral, 10-80 mg/kg, one hour before ultrasonic treatment) was 30% and the “anticonvulsive effect (general statement)” value (DBA/2 Mouse; [6]) was “less than 40%”.
In the case of `COC(=O)C1=C(C)Nc2scc(CC(C)C)c2[C@H]1c1cccc([N+](=O)[O-])c1` [S-312-d, methyl (+)-(4S)-4,7-dihydro-3-isobutyl-6-methyl-4-(3-nitrophenyl)thieno[2,3-b]pyridine-5-carboxylate], the “effect on the normal resting release of glutamate” value [4] is reported as “not the normal resting release; also recorded: without affecting the normal resting release of glutamate; also recorded: not the normal cerebral release of glutamate”, the “inhibition” value [4] is reported as “only S-312-d was significantly effective; also recorded: inhibited the massive release of glutamate during BCAO; also recorded: inhibits specifically the massive release of glutamate during cerebral ischemia; also recorded: inhibiting specifically a massive release of cerebral glutamate from hippocampus” and the “inhibition” value ([4]; listed as S-312-2) is reported as “the massive release of cerebral glutamate”. The ED50 (DBA/2 Mouse; oral) was 17.6 mg/kg, the “anti-convulsant effect, in words” value (DBA/2 Mouse) was “inhibits sound-induced convulsion in DBA/2 mouse; also recorded: dose-dependent anti-convulsant effect; also recorded: potent inhibitory effect on a convulsion induced by sound stimulation in DBA/2 mice” and the “anti-convulsant effect, in words” value (DBA/2 Mouse; listed as S-312-2) was “inhibit the both of a) the sound-induced convulsion”. The “protection of cerebral neurons against ischemic necrosis” value ([5]; pretreatment i.p., Table 2) was “significantly effective for the protection of cerebral neurons against ischemic necrosis of cells”, the “Density of Neurons, animals with 40-80 n/mm” value [5, 7] was 4 and the “Density of Neurons, animals with 80-120 n/mm” value [5, 7] was 2. For the same molecule, the “Density of Neurons, animals with <40 n/mm” value [5, 7] was 3, the “Density of Neurons, animals with >120 n/mm” value [5, 7] was 3 and the “Density of Neurons, mean ± S.E.M” value ([5]; treated group (I), 0.01 mg/kg i.p., n = 12, p < 0.01 vs normal group) was 73 ± 12 n/mm. For the same molecule, the “Density of Neurons, animals with 40-80 n/mm” value [5, 8] was 1, the “Density of Neurons, animals with 80-120 n/mm” value [5, 8] was 4 and the “Density of Neurons, animals with <40 n/mm” value [5, 8] was 2. For the same molecule, the “Density of Neurons, animals with >120 n/mm” value [5, 8] was 6, the “Density of Neurons, mean ± S.E.M” value ([5]; treated group (II), 0.1 mg/kg i.p., n = 13, p < 0.01 vs control group) was 114 ± 17 n/mm and the “antihypertensive, peripheral, cerebral and coronary vasodilating actions” value [1] was “exhibit antihypertensive activity, as well as peripheral, cerebral, and coronary vasodilating actions”. The “Ca-blocking effect on vascular smooth muscle” value (vascular smooth muscle) was “selective Ca-blocking effect on vascular smooth muscle”.
With `COC(=O)C1=C(C#N)NC(C)=C(C(=O)OC(C)C)C1c1cccc([N+](=O)[O-])c1` (stereo not shown) [nilvadipine, reference compound] the “inhibition” value [4] was “only S-312-d was significantly effective; also recorded: neither nilvadipine nor nimodipine shows significant effect”.
